Assay results: patent US4904590A, “Antibiotic A80915 and process for its production” (Eli Lilly and Company, priority 1988, dated 1990)
Converted amounts (≈) assume the structure as drawn. Where two headings read alike, the source gives them in different places.

Legend:
[1] = test system: Fusobacterium necrophorum 6054A; assay: Susceptibility of anaerobic bacterial isolates (MIC), agar-dilution; type: cell-based; settings: Fusobacterium necrophorum, 6054A, 24 h
Trichomonas foetus = assay: Anti-protozoan activity (MIC); type: cell-based; settings: Tritrichomonas foetus
[2] = test system: Bacteriodes melaninogenicus 2736; assay: Susceptibility of anaerobic bacterial isolates (MIC), agar-dilution; type: cell-based; settings: 24 h
[3] = test system: Fusobacterium symbiosum 1470; assay: as above; type: cell-based; settings: Fusobacterium, 1470, 24 h
[4] = test system: Bacteriodes vulgatis 1211; assay: as above; type: cell-based; settings: 24 h
[5] = test system: Clostridium difficile 2994; assay: as above; type: cell-based; settings: Clostridioides difficile; Clostridium difficile 2994; agar-dilution, 24-hour incubation; read-out: MIC
[6] = test system: Propionibacterium acnes 79; assay: as above; type: cell-based; settings: Cutibacterium acnes, 79, 24 h
[7] = test system: Bacteriodes fragilis 1936B; assay: as above; type: cell-based; settings: 24 h
[8] = test system: Eubacterium aerofaciens 1235; assay: as above; type: cell-based; settings: Collinsella aerofaciens; Eubacterium aerofaciens 1235; agar-dilution, 24-hour incubation; read-out: MIC
[9] = test system: Clostridium septicum 1128; assay: as above; type: cell-based; settings: 24-hour incubation
Description: The A80915 antibiotics also are active against anaerobic bacteria. […] End points were read after 24-hour incubation.

Pasteurella multocida = type: cell-based; settings: Veterinary organism Pasteurella multocida; agar-dilution
Description: (§1) The A80915 antibiotics inhibit the growth of bacteria which are pathogenic to animal life. […] The MIC's in Table III were determined by conventional agar-dilution assays.

Escherichia coli = type: cell-based; settings: Veterinary organism Escherichia coli; agar-dilution
Description: as §1

[10] = test system: Staphylococcus aureus V41; type: cell-based
Description: as §1

[11] = test system: Streptococcus pneumoniae Park1; type: cell-based
Description: as §1

Gram-negative = type: cell-based; settings: agar-dilution
Description: as §1

Salmonella typhimurium = type: cell-based; settings: Salmonella enterica; Veterinary organism Salmonella typhimurium; agar-dilution
Description: as §1

Mycoplasma gallisepticum = type: cell-based; settings: Mycoplasmoides gallisepticum; Veterinary organism Mycoplasma gallisepticum; agar-dilution
Description: as §1

Staphylococcus sp. = type: cell-based; settings: Veterinary organism Staphylococcus sp.; agar-dilution
Description: as §1

[12] = test system: Streptococcus faecium X66; type: cell-based; settings: Enterococcus faecium
Description: as §1

[13] = test system: Staphylococcus epidermis 222; type: cell-based
Description: as §1

[14] = test system: Staphylococcus aureus X400; type: cell-based
Description: as §1

[15] = test system: Bordetella bronchiseptica; type: cell-based; settings: Veterinary organism Bordetella bronchiseptica; agar-dilution
Description: as §1

[16] = test system: Streptococcus pyogenes C203; type: cell-based
Description: as §1

[17] = test system: Staphylococcus epidermis EPI1; type: cell-based
Description: as §1

Mycoplasma hyopneumoniae = type: cell-based; settings: Mesomycoplasma hyopneumoniae; Veterinary organism Mycoplasma hyopneumoniae; agar-dilution
Description: as §1

[18] = test system: Staphylococcus aureus X1.1; type: cell-based
Description: as §1

[19] = test system: Streptococcus faecium 2041; type: cell-based; settings: Enterococcus faecium
Description: as §1

Pasteurella hemolytica = type: cell-based; settings: Veterinary organism Pasteurella hemolytica; agar-dilution
Description: as §1

Streptococcus sp. = type: cell-based; settings: Veterinary organism Streptococcus sp.; agar-dilution
Description: as §1

Peptococcus prevoti 1281 = assay: Susceptibility of anaerobic bacterial isolates (MIC), agar-dilution; type: cell-based; settings: 24 h
[20] = test system: Bacteriodes melaninogenicus 1856/28; assay: as above; type: cell-based; settings: Bacteriodes melaninogenicus 1856/28; agar-dilution, 24-hour incubation; read-out: MIC
[21] = test system: Peptostreptococcus intermedius 1264; assay: as above; type: cell-based; settings: Peptostreptococcus, 1264, 24 h
[22] = test system: Clostridium perfringens 81; assay: microbe, parasite or virus in culture; type: cell-based; settings: Clostridium perfringens, 81, 24 h
[23] = test system: Bacteriodes thetaiotaomicron 1438; assay: Susceptibility of anaerobic bacterial isolates (MIC), agar-dilution; type: cell-based; settings: 24 h
Bacteriodes fragilis 111 = assay: as above; type: cell-based; settings: 24 h
[24] = test system: Peptostreptococcus anaerobius 1428; assay: as above; type: cell-based; settings: Peptostreptococcus anaerobius, 1428, 24 h
[25] = test system: Bacteriodes fragilis 1877; assay: as above; type: cell-based; settings: 24 h
Trichomonas vaginalis = assay: Anti-protozoan activity (MIC); type: cell-based
[26] = test system: Bacteriodes corrodens 1874; assay: Susceptibility of anaerobic bacterial isolates (MIC), agar-dilution; type: cell-based; settings: 24 h
[27] = test system: Peptococcus asaccharolyticus 1302; assay: as above; type: cell-based; settings: Peptoniphilus asaccharolyticus; Peptococcus asaccharolyticus 1302; agar-dilution, 24-hour incubation; read-out: MIC
Candida albicans = assay: Anti-fungal activity (MIC); type: cell-based
[28] = Acute toxicity in mice, intraperitoneal injection; settings: mouse, in vivo, ip
Excerpt: The acute toxicity of the A80915 antibiotics in mice, when administered by intraperitoneal injection and expressed as LD50, is shown in Table V.

`Cc1c(O)cc2c(c1O)C(=O)[C@@]1(Cl)C[C@@H](Cl)C(C)(C)O[C@@]1(C[C@H]1C(C)(C)[C@@H](Cl)CC[C@]1(C)O)C2=O` [A80915C] showed an MIC [1] of over 128 µg/mL, an MIC (Trichomonas foetus) of over 100 µg/mL and an MIC [2] of over 128 µg/mL. The MIC [3] was over 128 µg/mL, the MIC [4] was over 128 µg/mL and the MIC [5] was 8 µg/mL (≈ 14.6 µM). It also gave an MIC [6] of 4 µg/mL (≈ 7.3 µM), an MIC [7] of 4 µg/mL (≈ 7.3 µM) and an MIC [8] of 8 µg/mL (≈ 14.6 µM). It also gave an MIC [9] of 8 µg/mL (≈ 14.6 µM), an MIC (Pasteurella multocida) of 50 µg/mL (≈ 91.3 µM) and an MIC (Escherichia coli) of over 50 µg/mL. The MIC ([10]; Staphylococcus aureus, V41) was over 128 µg/mL, the MIC ([11]; Streptococcus pneumoniae, PARK1) was over 128 µg/mL and the MIC (Gram-negative) was over 128 µg/mL. It also gave an MIC (Salmonella typhimurium) of over 50 µg/mL, an MIC (Mycoplasma gallisepticum) of 25 µg/mL (≈ 45.6 µM) and an MIC (Staphylococcus sp.) of 1.56 µg/mL (≈ 2.85 µM). The MIC ([12]; X66) was over 128 µg/mL, the MIC ([13]; Staphylococcus, 222) was over 128 µg/mL and the MIC ([14]; Staphylococcus aureus, X400) was over 128 µg/mL. It also gave an MIC [15] of over 50 µg/mL, an MIC ([16]; Streptococcus pyogenes, C203) of over 128 µg/mL and an MIC ([17]; Staphylococcus, EPI1) of over 128 µg/mL. For the same molecule, the MIC (Mycoplasma hyopneumoniae) was over 50 µg/mL, the MIC ([18]; Staphylococcus aureus, X1.1) was over 128 µg/mL and the MIC [19]; 2041 was over 128 µg/mL. It also gave an MIC (Pasteurella hemolytica) of 50 µg/mL (≈ 91.3 µM), an MIC (Streptococcus sp.) of 3.12 µg/mL (≈ 5.69 µM) and an MIC (Peptococcus prevoti 1281) of 2 µg/mL (≈ 3.65 µM). The MIC [20] was 64 µg/mL (≈ 117 µM), the MIC [21] was 128 µg/mL (≈ 234 µM) and the MIC [22] was 8 µg/mL (≈ 14.6 µM). The MIC [23] was over 128 µg/mL, the MIC (Bacteriodes fragilis 111) was 128 µg/mL (≈ 234 µM) and the MIC [24] was 4 µg/mL (≈ 7.3 µM). For the same molecule, the MIC [25] was 4 µg/mL (≈ 7.3 µM), the MIC (Trichomonas vaginalis) was over 100 µg/mL and the MIC [26] was over 128 µg/mL. The MIC [27] was 2 µg/mL (≈ 3.65 µM), the MIC (Candida albicans) was over 80 µg/mL and the LD50 [28] was over 300 mg/kg.
Work on `C=C1CCC(Cl)C(C)(C)C1CC12OC(C)(C)C(Cl)C=C1C(=O)c1c(cc(O)c(C)c1O)C2=O` (stereo not shown) [Compound 5] yielded an MIC ([10]; Staphylococcus aureus V41, agar-dilution, read-out: MIC) of 4 µg/mL (≈ 8.11 µM), an MIC ([11]; Streptococcus pneumoniae Park1, agar-dilution, read-out: MIC) of 4 µg/mL (≈ 8.11 µM) and an MIC (Gram-negative) of over 128 µg/mL. It also gave an MIC ([12]; Streptococcus faecium X66, agar-dilution, read-out: MIC) of 8 µg/mL (≈ 16.2 µM), an MIC ([13]; Staphylococcus epidermis 222, agar-dilution, read-out: MIC) of 4 µg/mL (≈ 8.11 µM) and an MIC ([14]; Staphylococcus aureus X400, agar-dilution, read-out: MIC) of 4 µg/mL (≈ 8.11 µM). For the same molecule, the MIC ([16]; Streptococcus pyogenes C203, agar-dilution, read-out: MIC) was 4 µg/mL (≈ 8.11 µM), the MIC ([17]; Staphylococcus epidermis EPI1, agar-dilution, read-out: MIC) was 4 µg/mL (≈ 8.11 µM) and the MIC ([18]; Staphylococcus aureus X1.1, agar-dilution, read-out: MIC) was 4 µg/mL (≈ 8.11 µM). The MIC ([19]; Streptococcus faecium 2041, agar-dilution, read-out: MIC) was 8 µg/mL (≈ 16.2 µM).
